Assays:
Assay type in all cases: cell-based
GLT-1 = molecular target: T1, GLT-1 (Homo sapiens, UniProt P43004); assay: 3H-glutamate uptake counter assay in HEK293 cells overexpressing human GLT-1
T1 construct: host or cells: HEK293 (virus made in GP293 packaging cells)
Procedure: The compound was obtained by screening of a library containing more than 50,000 lead-like compounds and fragments. The library was tested using a functional citrate uptake assay with HEK293 cells overexpressing recombinant human INDY. The following hit confirmation was conducted in the same assay system. To confirm the activity of selected compounds on the target INDY another cell assay was conducted. In this assay system citrate uptake was measured using HepG2 cells which endogenously express INDY. Furthermore selectivity of selected compounds was tested for two other transporters in different assay systems. The first transporter was the glutamate transporter GLT-1 tested in a glutamate uptake assays using HEK293 cells overexpressing recombinant human GLT-1. The second transporter was the glucose transporter GLUT1 tested in a glucose uptake assay using Huh-7 cells which endogenously express GLUT1. Compounds were considered to be selective with an at least 5-fold higher activity for INDY than for the other two transporters.
Cells were maintained in cell medium using cell culture grade flasks (CellSTACK Corning, 500 cm2 dishes or T175 depending on cell number). The selection antibiotic and G418 (800 μg/ml) was added during cultivation but not for seeding into assay plates. For splitting, cells were washed with PBS (w/o Ca2+, Mg2+, phenol red) and detached with Trypsin/EDTA. Throughout cultivation cells were kept sub-confluent. Detached cells (50,000 cells/well) were seeded in 96-well plates (white, clear bottom from Corning #655098) and incubated over night before usage in the assay. The following media were used. For HEK293 cells expressing INDY MEM (PAA)+10% FCS+1×P/S+2 mM L-Gln; for HEK293 cells expressing GLT-1 DMEM (Gibco)+10% FCS+400 µg/ml G418; for Huh7 cells DMEM (Gibco)+10% FCS+2 mM L-Gin (+1×P/S); for HepG2 cells MEM (PAA, Cat # E15-024)+10% FCS+2 mM L-Gin+1×NEAA+1 mM Na-Pyruvat
The following assay buffers for the particular uptake reaction were used. Citrate uptake buffer: 120 mM NaCl, 5.4 mM KCl, 0.8 mM MgSO4, 5 mM glucose, 1.8 mM CaCl2, 25 mM Hepes, 25 mM MES, pH 6.5. Glutamate uptake buffer: HBSS, 1 mM CaCl2, 1 mM MgCl2, 20 mM Hepes pH 7.4. Glucose uptake buffer: 25 mM Hepes+25 mM MES pH 7.4, 120 mM NaCl, 5.4 mM KCl, 1.8 mM CaCl2, 0.8 mM MgSO4.
As a counter assay, Glutamate uptake by the GLT-1 transporter was used. The principle of the assay is to measure the uptake of ^3H labelled glutamate into HEK cells, which overexpress human GLT-1.
The generation of a GLT-1 cell line was performed as follows: human GLT11 isoform sv1 cDNA (Origene # RC223924) was cloned into vector pFB-Neo-CMV-hGLT1 using QIAfilter Plasmid Midi Kit (Qiagen). Virus was generated in GP293 packaging cells (transfection of plasmid with Lipofectamine 2000+OptiMEM). For transfection into HEK cells GP293, supernatant containing virus was passed through a 0.45 micron sterile filter and DEAE-dextran was added at […] final concentration. The solution was used to transfect HEK293 cells at 37° C., 8.5% CO2. After 24 h selection marker G418 at 400 μg/ml was added and cultivation medium performed in DMEM 10% FBS.
The assay was performed in a 96-well format using repeated washing steps, cell lysis and addition of scintillation fluid. Assay buffer was HBSS, 1 mM CaCl2, 1 mM MgCl2, […] pH 7.4. Cells were seeded into white clear-bottom 96-well plates (50,000/well) in the presence of Poly-D-Lysine and incubated at 37° C. for 16-24 hours. Subsequently the plates were washed once with assay buffer using automated washing/LS 405 Selectors, BioTek ending with a buffer volume of 40 μl. Then 5 μl of compound solution in assay buffer was added and incubated for 20 min at 37° C. in cell incubator, HERA cell Heraeus. Afterwards 10 μl of substrate 3H-Glu (3 nM) were added and incubated for another 20 min at 37° C. in cell incubator, HERAcell. Then the plates were washed once with 200 μl cold assay buffer and 150 μl scintillation fluid was added. […]

INDY [1] = molecular target: T2, INDY (Homo sapiens, UniProt Q86YT5); assay: 14C-citrate uptake in HEK293 cells overexpressing recombinant human INDY (NaCT); set-up: expressed in transfected cells; host or cells: HEK293
T2 sequence (Q86YT5 whole entry): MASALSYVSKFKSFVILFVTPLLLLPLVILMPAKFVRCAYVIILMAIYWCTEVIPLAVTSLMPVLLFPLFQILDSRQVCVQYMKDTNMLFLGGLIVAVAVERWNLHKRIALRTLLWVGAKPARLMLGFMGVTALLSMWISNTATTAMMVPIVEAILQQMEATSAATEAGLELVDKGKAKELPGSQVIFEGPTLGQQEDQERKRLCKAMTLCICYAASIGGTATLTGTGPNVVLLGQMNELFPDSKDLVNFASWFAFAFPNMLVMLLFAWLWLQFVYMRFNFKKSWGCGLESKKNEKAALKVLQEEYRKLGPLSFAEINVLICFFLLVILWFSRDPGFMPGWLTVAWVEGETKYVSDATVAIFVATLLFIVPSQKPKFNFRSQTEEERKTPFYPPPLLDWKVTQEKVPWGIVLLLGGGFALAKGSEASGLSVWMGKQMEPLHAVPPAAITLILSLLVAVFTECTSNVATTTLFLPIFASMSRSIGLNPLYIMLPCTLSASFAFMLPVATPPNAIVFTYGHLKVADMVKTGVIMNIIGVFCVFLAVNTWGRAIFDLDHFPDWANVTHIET
How it was run: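 HEK293 cells overexpressing human NaCT, 50,000/well, preincubated 5-30 min at 37 °C with compound in pH 6.5 Na+ buffer. 14C-citrate ([…]) uptake then ran 20-90 min at 37 °C, followed by ice-cold washes, NaOH lysis and scintillation counting. 10 mM citrate served as positive control.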

INDY [2] = molecular target: T2, INDY; assay: 14C-citrate uptake in HepG2 cells endogenously expressing INDY (NaCT); details: endogenous INDY
How it was run: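 HepG2 cells, which express INDY endogenously, were preincubated with compound for 5 min at 37 °C in pH 6.5 Na+ citrate uptake buffer. 14C-citrate ([…]) was then added for 90 min at 37 °C. After washing and NaOH lysis, uptake was measured by scintillation counting, with 5 mM citrate as positive control.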

T1 sequence (P43004 whole entry): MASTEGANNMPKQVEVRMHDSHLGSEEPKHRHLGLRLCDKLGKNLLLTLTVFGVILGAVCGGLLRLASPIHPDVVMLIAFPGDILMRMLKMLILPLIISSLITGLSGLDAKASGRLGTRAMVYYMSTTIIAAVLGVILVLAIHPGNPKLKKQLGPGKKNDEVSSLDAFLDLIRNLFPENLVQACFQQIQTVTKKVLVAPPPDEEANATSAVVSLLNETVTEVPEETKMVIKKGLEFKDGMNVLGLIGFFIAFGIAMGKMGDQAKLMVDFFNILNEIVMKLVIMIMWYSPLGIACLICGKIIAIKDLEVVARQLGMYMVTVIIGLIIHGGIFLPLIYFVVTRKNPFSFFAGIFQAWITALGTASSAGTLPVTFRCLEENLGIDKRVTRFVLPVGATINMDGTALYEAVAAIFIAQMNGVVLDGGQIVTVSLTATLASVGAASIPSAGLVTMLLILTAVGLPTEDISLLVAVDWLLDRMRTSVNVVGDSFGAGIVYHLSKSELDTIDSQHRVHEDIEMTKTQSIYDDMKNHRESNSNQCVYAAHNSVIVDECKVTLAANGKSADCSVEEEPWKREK

Row | IC50 (GLT-1) | IC50 (INDY [1]) | IC50 (INDY [2]) | Structure (SMILES)
1 | > 20 µM | 200 nM | 100 nM | O=C(NCc1ccccc1O)C1CCN(S(=O)(=O)c2cc(Cl)cc(Cl)c2)CC1 [Example 79, 1-(3,5-dichlorobenzenesulfonyl)-N-[(2-hydroxyphenyl)methyl]pipendine-4-carboxamide]
2 | > 20 µM | 1400 nM | 900 nM | CC(F)c1cccc(S(=O)(=O)N2CCC(C(=O)NCc3ccccc3F)CC2)c1 (centres unmarked) [Example 112, 1-[3-(1-fluoroethyl)benzenesulfonyl]-N-[(2-fluorophenyl)methyl]piperidine-4-carboxamide]
3 | > 20 µM | 500 nM | 400 nM | O=C(NCc1ccccc1F)C1CCN(S(=O)(=O)c2ccc(OC(F)(F)F)cc2)CC1 [Example 29, N-[(2-fluorophenyl)methyl]-1-[4-(trifluoromethoxy)benzenesulfonyl]piperidine-4-carboxamide]
4 | > 20 µM | 1000 nM | 800 nM | [N-]=[N+]=NCc1ccccc1CNC(=O)C1CCN(S(=O)(=O)c2cc(Cl)cc(Cl)c2)CC1 [Example 92, N-([2-(azidomethyl)phenyl]methyl)-1-(3,5-dichlorobenzenesulfonyl)piperidine-4-carboxamide]
5 | > 20 µM | 1300 nM | 700 nM | Cc1cc(C)cc(S(=O)(=O)N2CCC(C(=O)NCc3ccccn3)CC2)c1 [Example 60, 1-(3,5-dimethylbenzenesulfonyl)-N-[(pyridin-2-yl)methyl]piperidine-4-carboxamide]
6 | > 20 µM | 2700 nM | 5200 nM | CC(C)c1ccc(S(=O)(=O)N2CCC(C(=O)NCc3ccccn3)CC2)cc1 [Example 111, 1-[4-(propan-2-yl)benzenesulfonyl]-N-[(pyridin-2-yl)methyl]piperidine-4-carboxamide]
7 | > 20 µM | 2400 nM | 1600 nM | O=C(NCc1ccccn1)C1CCN(S(=O)(=O)c2ccc(Cl)cc2Cl)CC1 [Example 73, 1-(2,4-dichlorobenzenesulfonyl)-N-[(pyridin-2-yl)methyl]pipendine-4-carboxamide]
8 | – | 5700 nM | 4000 nM | COC(=O)c1cccc(CNC(=O)C2CCN(S(=O)(=O)c3cc(Cl)cc(Cl)c3)CC2)c1 [Example 118, methyl 3-({[1-(3,5-dichlorobenzenesulfonyl)piperidin-4-yl]formamido}methyl)benzoate]
9 | – | 2000 nM | 700 nM | O=C(NCc1ccc(F)cc1)C1CCN(S(=O)(=O)c2cc(Cl)cc(Cl)c2)CC1 [Example 132, 1-(3,5-dichlorobenzenesulfonyl)-N-[(4-fluorophenyl)methyl]piperidine-4-carboxamide]
10 | – | 1000 nM | 4500 nM | CCc1ccc(S(=O)(=O)N2CCC(C(=O)NCc3ccccc3F)CC2)cc1 [Example 34, 1-(4-ethylbenzenesulfonyl)-N-[(2-fluorophenyl)methyl]piperidine-4-carboxamide]
11 | – | 4600 nM | > 20000 nM | O=C(NCc1cc(F)ccc1F)C1CCN(S(=O)(=O)/C=C/c2ccccc2)CC1 [Example 23, N-[(2,5-difluorophenyl)methyl]-1-[(E)-2-phenylethenesulfonyl]piperidine-4-carboxamide]
12 | – | 9300 nM | 9300 nM | CC(C)(C)c1ccc(S(=O)(=O)N2CC(C(=O)NCc3ccccc3F)C2)cc1 [Example 46, 1-(4-tert-butylbenzenesulfonyl)-N-[(2-fluorophenyl)methyl]azetidine-3-carboxamide]
13 | – | 300 nM | 800 nM | COc1ccccc1CNC(=O)C1CCN(S(=O)(=O)c2ccc(C(C)(C)C)cc2)CC1 [Example 38, 1-(4-tert-butylbenzenesulfonyl)-N-[(2-methoxyphenyl)methyl]piperidine-4-carboxamide]
14 | > 20 µM | 1100 nM | 600 nM | O=C(NCc1ccccc1O)C1CCN(S(=O)(=O)c2ccc(C(F)(F)F)cc2)CC1 [Example 82, N-[(2-hydroxyphenyl)methyl]-1-[4-(trifluoromethyl)benzenesulfonyl]pipendine-4-carboxamide]
15 | > 20 µM | 800 nM | 1100 nM | CC(C)(C)c1ccc(S(=O)(=O)N2CCC(C(=O)NCc3ccccn3)CC2)cc1 [Example 37, 1-(4-tert-butylbenzenesulfonyl)-N-[(pyridin-2-yl)methyl]piperidine-4-carboxamide]
16 | > 20 µM | 100 nM | 100 nM | O=C(NCc1ccccc1)C1CCN(S(=O)(=O)c2cc(Cl)cc(Cl)c2)CC1 [Example 103, N-benzyl-1-(3,5-dichlorobenzenesulfonyl)piperidine-4-carboxamide]
17 | – | 7500 nM | 2800 nM | O=C(NCc1ccccn1)C1CN(S(=O)(=O)c2cc(Cl)cc(Cl)c2)C1 [Example 120, 1-(3,5-dichlorobenzenesulfonyl)-N-[(pyridin-2-yl)methyl]azetidine-3-carboxamide]
18 | – | 5100 nM | 6700 nM | O=C(NCc1ccccc1Br)C1CCN(S(=O)(=O)/C=C/c2ccccc2)CC1 [Example 32, N-[(2-bromophenyl)methyl]-1-[(E)-2-phenylethenesulfonyl]piperidine-4-carboxamide]
19 | – | 6400 nM | 2700 nM | O=C(NCc1ccccn1)C1CCN(S(=O)(=O)c2ccc(OC(F)(F)F)cc2)CC1 [Example 58, N-[(pyridin-2-yl)methyl]-1-[4-(trifluoromethoxy)benzenesulfonyl]piperidine-4-carboxamide]
20 | – | 1800 nM | 900 nM | Nc1ccc(CNC(=O)C2CCN(S(=O)(=O)c3cc(Cl)cc(Cl)c3)CC2)cc1 [Example 124, N-[(4-aminophenyl)methyl]-1-(3,5-dichlorobenzenesulfonyl)piperidine-4-carboxamide]
21 | – | 4300 nM | 2200 nM | O=C(NCc1ccccn1)C1CCN(S(=O)(=O)c2cc(F)cc(C(F)(F)F)c2)CC1 [Example 84, 1-[3-fluoro-5-(trifluoromethyl)benzenesulfonyl]-N-[(pyridin-2-yl)methyl]pipendine-4-carboxamide]
22 | – | 5900 nM | 2300 nM | O=C(NCc1ccccn1)C1CCN(S(=O)(=O)c2cc(Cl)cc(C3COC3)c2)CC1 [Example 116, 1-[3-chloro-5-(oxetan-3-yl)benzenesulfonyl]-N-[(pyridin-2-yl)methyl]piperidine-4-carboxamide]
23 | – | 7400 nM | > 20000 nM | O=C(NCc1cccc(F)c1)C1CCN(S(=O)(=O)/C=C/c2ccccc2)CC1 [Example 21, N-[(3-fluorophenyl)methyl]-1-[(E)-2-phenylethenesulfonyl]piperidine-4-carboxamide]

— US20200087258A1, “INHIBITOR OF CITRATE TRANSPORTER AND THEIR USE IN THERAPY” (Eternygen GmbH, priority 2017, published 2020)
